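These data come from cells grown in 96-well plates and exposed to compound for 48 hours at five concentrations. The concentration for 50% growth inhibition is given as GI50. TGI: concentration producing complete growth inhibition.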
Key:
Assay in all cases: NCI anticancer screen, dose series, 48 h
[1] = system: SNB-75 CNS
[2] = system: U251 CNS
[3] = system: A549 NSCLC
[4] = system: NCI-H460 lung
[5] = system: HOP-62 NSCLC
[6] = system: SK-MEL-28 melanoma
[7] = system: A498 renal
[8] = system: DU-145 prostate
[9] = system: MDA-MB-231 breast
[10] = system: NCI/ADR-RES ovarian

Structure (SMILES)	TGI [1] [µM]	TGI [2] [µM]	TGI [3] [µM]	TGI [4] [µM]	TGI [5] [µM]	GI50 [1] [µM]	GI50 [6] [µM]	TGI [6] [µM]	GI50 [2] [µM]	GI50 [3] [µM]	GI50 [4] [µM]	GI50 [7] [µM]	TGI [7] [µM]	TGI [8] [µM]	GI50 [9] [µM]	TGI [9] [µM]	GI50 [8] [µM]	GI50 [10] [µM]	TGI [10] [µM]	GI50 [5] [µM]
C=C(Br)C(C)(Cl)CCC(Br)C(C)(C)Br (stereo not drawn)	> 100	> 100	> 100	> 100	> 100	–	–	–	–	–	–	–	–	–	–	–	–	–	–	–
O=C([CH-]C(=O)c1ccccc1)c1ccccc1.O=C([CH-]C(=O)c1ccccc1)c1ccccc1.O=C([CH-]C(=O)c1ccccc1)c1ccccc1.[Ga+3]	> 100	> 100	> 100	> 100	–	64.7	> 100	> 100	23.3	39.6	16.3	56.8	> 100	–	–	–	–	–	–	–
O=C(O)/C=C/c1ccc(O)c(O)c1	> 100	> 100	> 100	> 100	> 100	–	–	> 100	–	–	–	–	> 100	> 100	–	–	–	–	–	–
CC(=O)C1(O)CC2(c3ccccc3)C(=O)C1(c1ccccc1)C(c1ccccc1)=C2c1ccccc1 (stereo not drawn)	> 100	> 100	> 100	> 100	> 100	–	–	–	–	–	–	–	> 100	–	–	–	–	–	–	–
C=CCc1cccc(C=O)c1O	> 100	> 100	> 100	> 100	> 100	10.6	> 100	> 100	6.63	> 100	> 100	–	–	> 100	19.1	> 100	> 100	20.4	> 100	> 100
COC(=O)c1cc2ccc(O)c(O)c2cn1	36.6	31.2	63.1	37.4	36.2	–	–	35.6	16.9	–	–	–	–	> 100	–	25.2	–	20.4	46.1	–
O=C(CCc1nnc2s/c(=C\c3ccc([N+](=O)[O-])cc3)c(=O)n12)Nc1ccc(Cl)c(Cl)c1	28	31.2	> 100	> 100	45.7	–	–	63.8	–	–	–	–	> 100	–	–	–	–	–	–	–
CC(=O)N1C/C(=C\c2ccccc2)C(=O)/C(=C/c2ccccc2)C1	40.9	29.7	55.1	40.2	39	–	–	27.5	–	–	–	–	31.8	–	–	–	–	–	–	–
CC(C)(CN1CCCCC1)C(=O)/C=C/c1ccccc1	39.3	57	52.7	66.9	61.3	–	–	33	–	–	–	–	57.8	–	–	–	–	–	–	–
NS(=O)(=O)c1ccc(N(/C=C/C(=O)C(F)(F)F)CC(=O)c2ccc(F)cc2)cc1	–	48.9	> 100	> 100	> 100	–	43.7	> 100	18.4	44.2	28.1	0.0281	0.54	52.2	20.9	42	20.6	18.2	41.6	65.4
C/C(=N/NC(=O)c1ccccc1S(N)(=O)=O)C(CN1CCCCC1)C(C1=C(O)C2C=CC=CC2OC1=O)c1ccccc1 (stereo not drawn)	> 100	> 100	> 100	> 100	> 100	–	–	–	–	–	–	–	> 100	–	–	–	–	–	–	–
Cn1cc(C2NC(=O)c3ccccc3N2)c2ccccc21 (stereo not drawn)	–	6.27	> 100	> 42.8	> 100	–	–	> 100	–	–	–	–	> 100	–	–	> 100	–	–	2.49	–
O=C(/C=C/c1ccccc1)NC1C=Nc2ccc([N+](=O)[O-])cc2NC1=O (stereo not drawn)	> 100	> 100	> 100	> 100	> 100	–	–	> 100	–	–	–	–	> 100	–	–	–	–	–	–	–
CCNC1=C(NC(=O)c2ccc(F)cc2)C(=O)c2ccccc2C1=O	> 100	–	> 100	> 100	> 100	–	–	> 100	–	–	–	–	–	> 100	–	> 100	–	–	> 100	–
C[C@@H]1C(=O)CC2C(C)(C)CCC[C@]2(C)[C@@]12CC[C@]1(C=COC1)O2 (stereo partly drawn)	–	–	> 100	> 100	> 100	–	–	–	–	–	–	–	–	–	–	–	–	–	–	–
Cc1c(C(Cc2ccccc2N(C)C(=O)/C=C\C(=O)O)c2c[nH]c3ccccc23)c2ccccc2n1C (stereo not drawn)	33.7	30.3	31.8	32.7	32.5	–	–	–	–	–	–	–	35.6	–	–	–	–	–	–	–
NC1=C(O)c2cccc3cccc(c23)C1=O	> 100	> 100	> 100	–	–	–	–	> 100	–	–	–	–	> 100	–	–	–	–	–	–	–
O=S(=O)(NCCCNc1cc(-c2cn(-c3ccccc3)nc2-c2cccc(O)c2)ccn1)c1ccc(C(F)(F)F)cc1	5.06	3.26	7.45	3.86	3.78	1.45	1.99	4.29	1.28	2.14	1.86	1.1	2.64	8.11	–	–	2.65	2.45	7.13	1.95
Cc1cc(N(CCC#N)CCC#N)ccc1/C=C(\NC(=O)/C=C/c1ccccc1)C(=O)N=[N+]=[N-]	62	> 100	> 100	> 100	> 100	–	–	> 100	–	–	–	–	> 100	–	–	–	–	–	–	–
O=C(O)c1ccc(N(/C=C/C(=O)C(F)(F)F)Cc2ccc(Cl)cc2)cc1	–	86.7	> 100	> 100	65.3	–	32.9	84	26.2	34.9	> 100	22	62.9	62.1	18.6	48.2	22.4	23	68.4	24.5
Cc1c(Cl)cccc1C(=O)Nc1nc2c(s1)CN(C(=O)Nc1cccc(C(F)(F)F)c1)CC2	3.52	> 50	> 50	> 17.4	> 50	0.104	0.985	> 50	0.242	0.33	0.182	–	–	> 50	0.59	> 35.6	0.204	0.14	1.01	0.278

From PubChem BioAssay (NCI)
